# Data: ChEMBL document CHEMBL2331503, “Hx-amides: DNA sequence recognition by the fluorescent Hx (p-anisylbenzimidazole)•pyrrole and Hx•imidazole pairings” (Bioorg Med Chem Lett, 2013)
# Calls of active or inactive are those of the source. No cut-off for these calls is given here.
# Tests used:
# [1] = Binding affinity to 5'-ATGCAT DNA by surface plasmon resonance assay
# [2] = Binding affinity to 5'-ACGCGT DNA assessed as change in melting temperature at 3 mol equivalent of compound-DNA
# [3] = Binding affinity to cognate sequence of 5'-ACCGGT DNA at 1 mol equivalent by circular dichroism analysis
# [4] = Binding affinity to 5'-AAATTT DNA assessed as change in melting temperature at 3 mol equivalent of compound-DNA
# [5] = Binding affinity to 5'-AGCGCT DNA by surface plasmon resonance assay
# [6] = Binding affinity to cognate sequence of 5'-ACCGGT DNA by surface plasmon resonance assay
# [7] = Inhibition of 5'-ACCGGT cognate sequence containing 5'-32P labeled 131 base pair DNA (unknown origin) cleavage at 10 to 30 uM DNase I footprinting method
# [8] = Binding affinity to 5'-ACCGGT DNA assessed as change in melting temperature at 3 mol equivalent of compound-DNA
compound,measurement,setting,value
COc1ccc(-c2nc3ccc(C(=O)Nc4cn(C)c(C(=O)Nc5cn(C)c(C(=O)NCCN(C)C)n5)n4)cc3[nH]2)cc1,K,[1],1 ×10⁶ /M
same,ΔTm,[2],0 °C
same,Activity,[3],Active
same,ΔTm,[4],5 °C
same,K,[5],5 ×10⁵ /M
same,K,[6],2 ×10⁶ /M
same,inhibition,[7],Active
same,ΔTm,[8],5 °C
